# Experiments:
# [1] = tested on: CaCo-2 cells; conditions: average for Enn A, A1, B and B1, ref Meca et al., 2012; cited from earlier work
# [2] = ref Manyes et al., 2014, cited from earlier work
# [3] = assay type: in vivo, CB-17 scid/scid mice; conditions: KB-3-1 xenograft
# [4] = assay type: in vivo, SCID mice; conditions: 5 mg/kg i.p.
# [5] = Evaluation of toxicological effects: body weight, behavior, histology; assay type: in vivo, SCID mice; conditions: 5 mg/kg i.p., short-term and 9-day schedules
# [6] = 5 mg/kg b.w. i.p. daily, 9 days, mean ± SD (n = 4)
compound,measurement,setting,value
CC[C@H](C)[C@H]1C(=O)O[C@H](C(C)C)C(=O)N(C)[C@@H]([C@@H](C)CC)C(=O)O[C@H](C(C)C)C(=O)N(C)[C@@H](C(C)C)C(=O)O[C@H](C(C)C)C(=O)N1C [Enn A1],Apparent mean bioavailability,[1],80%
CC[C@H](C)[C@H]1C(=O)O[C@H](C(C)C)C(=O)N(C)[C@@H]([C@@H](C)CC)C(=O)O[C@H](C(C)C)C(=O)N(C)[C@@H]([C@@H](C)CC)C(=O)O[C@H](C(C)C)C(=O)N1C [Enn A],Apparent mean bioavailability,[1],80%
same,Detection in kidneys,[2]; Enn A-fed Wistar rats,no Enn A was detected in kidneys
same,"Adverse effects (histological analyses, biochemical blood parameters)","[2]; repeated dose 20.91 mg Enn A/kg b.w./day, 28 days, feed",no adverse effects
"CC(C)[C@H]1C(=O)O[C@H](C(C)C)C(=O)N(C)[C@@H](C(C)C)C(=O)O[C@H](C(C)C)C(=O)N(C)[C@@H](C(C)C)C(=O)O[C@H](C(C)C)C(=O)N1C [Enn B, Enniatin B]",Concentration in serum,[3]; [6],5.4 ± 0.2 µg/kg
same,Concentration in tumor,[3]; [6],2.8 ± 0.8 µg/kg
same,Degradation products (metabolites) in tumor tissues,"[3]; 9-day treatment, 5 mg/kg i.p.",no degradation products could be found
same,"Concentration in liver, quantified with Enn B calibration curve",[4]; 2-days Enn B-treated SCID mice,2.9 ± 0.6 µg/kg
same,"Metabolites in serum, brain, muscle and kidney",[4]; short-term treatment,no metabolites were found
same,"Apparent signs of toxicity (food and fluid consumption, fatigue, body weight alterations)",[5],None of the treatment schedules showed apparent signs of toxicity
same,Apparent mean bioavailability,[1],80%
CC(C)C1NC(=O)C(C(C)C)OC(=O)C(C(C)C)N(C)C(=O)C(C(C)C)OC(=O)C(C(C)C)N(C)C(=O)C(C(C)C)OC1=O (stereo not shown) [Mono-demethylated-Enn B],"Concentration in colon, quantified with Enn B calibration curve",[4]; 2-days Enn B-treated SCID mice,0.6 ± 0.09 µg/kg
same,"Concentration in liver, quantified with Enn B calibration curve",[4]; 2-days Enn B-treated SCID mice,0.7 ± 0.1 µg/kg

# From article PMC5850989 (Toxicology letters, 2016)
